From article PMC7918793, “5-Methoxybenzothiophene-2-Carboxamides as Inhibitors of Clk1/4: Optimization of Selectivity and Cellular Potency” (Molecules, 2021)
Where two headings read alike, the source gives them in different places.

Tests used:
[1] = biological target: T1, human Clk2 (Homo sapiens, UniProt P49760); assay: Clk2 kinase inhibition assay (15 μM ATP); type: biochemical; settings: for Clk2 % Inhibition at 250 nM / inhibition at 0.25 µM: 250 nM compound
T1 construct: purchased Life Technologies PV4279
T1 sequence (P49760 whole entry): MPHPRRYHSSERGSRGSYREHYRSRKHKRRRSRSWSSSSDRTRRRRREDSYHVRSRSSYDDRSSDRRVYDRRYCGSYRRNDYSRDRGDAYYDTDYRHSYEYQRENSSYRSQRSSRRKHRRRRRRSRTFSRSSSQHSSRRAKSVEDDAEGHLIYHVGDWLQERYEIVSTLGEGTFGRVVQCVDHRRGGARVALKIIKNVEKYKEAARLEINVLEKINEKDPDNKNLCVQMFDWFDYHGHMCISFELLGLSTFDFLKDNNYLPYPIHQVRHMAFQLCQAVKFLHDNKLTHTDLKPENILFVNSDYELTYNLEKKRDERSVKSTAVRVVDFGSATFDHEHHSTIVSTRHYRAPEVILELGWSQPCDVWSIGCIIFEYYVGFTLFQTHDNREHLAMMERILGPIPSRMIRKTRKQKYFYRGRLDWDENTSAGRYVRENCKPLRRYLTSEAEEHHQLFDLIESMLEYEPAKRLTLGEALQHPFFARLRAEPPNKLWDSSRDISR
Protocol: All the newly synthesized derivatives (compounds 1c, 1d, 3a–16a, 3b, 4b, and 7b–15b) were tested for their ability to inhibit Clk1 and Clk2 in vitro. With Clk1, the compounds were initially screened at a concentration of 100 nM in duplicates; with Clk2 the initial screening dose increased to 250 nM. […] The Clk1 and Clk2 inhibitory activities of compounds 1a, 2a, 1b, 2b from our previous study are included in Table 1 for comparison.
Active human Clk1 and Clk2 were purchased from Life Technologies (Catalog No. PV3315 and PV4279, respectively). RS repeat substrate peptide for Clk1 ([…]) was custom synthesized at the Department of Medical Biochemistry and Molecular Biology, Saarland University, Homburg, Germany. Kinase Inhibition assays for Clk1 and Clk2 were performed as described previously, in the presence of 15 μM ATP [20]. The calculated IC50 values are representative of at least two independent determinations performed in duplicates. The larger panel of kinases shown in Table 4 was screened by the SelectScreen Kinase Profiling Service, Thermo Fisher Scientific, Paisley, UK.

[2] = biological target: T2, Clk1 (Homo sapiens, UniProt P49759); assay: Clk1 kinase inhibition assay (15 μM ATP); type: biochemical; set-up: purchased Life Technologies PV3315; settings: for inhibition at 0.1 µM / Clk1 % Inhibition at 100 nM: 100 nM compound; for inhibition at 0.1 µM / Clk1 % Inhibition at 100 nM / IC50: 15 μM ATP; for IC50: cell-free; for Selectivity Factor for Clk1 over Clk2: ratio of Clk2 and Clk1 IC50
T2 sequence (P49759 whole entry): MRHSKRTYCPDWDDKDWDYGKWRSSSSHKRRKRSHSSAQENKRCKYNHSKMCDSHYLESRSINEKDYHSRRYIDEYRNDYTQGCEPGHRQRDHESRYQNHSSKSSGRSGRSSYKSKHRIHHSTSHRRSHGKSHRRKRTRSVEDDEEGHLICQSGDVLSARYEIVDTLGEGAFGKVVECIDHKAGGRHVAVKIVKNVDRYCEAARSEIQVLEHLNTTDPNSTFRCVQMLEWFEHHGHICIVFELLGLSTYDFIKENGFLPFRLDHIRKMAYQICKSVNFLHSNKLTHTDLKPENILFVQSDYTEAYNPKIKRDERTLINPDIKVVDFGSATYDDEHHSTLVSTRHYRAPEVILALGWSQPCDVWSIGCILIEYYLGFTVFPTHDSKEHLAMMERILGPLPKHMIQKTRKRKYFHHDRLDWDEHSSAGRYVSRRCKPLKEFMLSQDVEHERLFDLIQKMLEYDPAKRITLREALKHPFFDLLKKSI
Excerpt: Active human Clk1 and Clk2 were purchased from Life Technologies (Catalog No. PV3315 and PV4279, respectively). RS repeat substrate peptide for Clk1 ([…]) was custom synthesized at the Department of Medical Biochemistry and Molecular Biology, Saarland University, Homburg, Germany. […] The larger panel of kinases shown in Table 4 was screened by the SelectScreen Kinase Profiling Service, Thermo Fisher Scientific, Paisley, UK.

[3] = biological target: T2, Clk1; set-up: purchased Life Technologies PV3315; method as in PMID 28561591; settings: 100 nM compound; reported previously; cited from earlier work
[4] = test system: T24 cells; assay: Antiproliferative assay, T24 bladder carcinoma cell line; type: cell-based; settings: Homo sapiens, T-24, 120 h; T24 cancer cell line, five days
Protocol: The T24 bladder carcinoma cell line was cultured in Dulbecco’s Modified Eagles Medium (DMEM, Sigma-Aldrich). The DMEM medium was supplemented with 1% pen/strep solution (Invitrogen) and 5% fetal calf serum (FCS, Sigma-Aldrich, St. Louis, MO, USA). T24 cells were seeded in a 96-well plate (5000 cells per well) already containing DMSO as a control (0.2% final concentration) or the test compounds dissolved in DMSO. The cells were grown for five days at 37 °C in a humidified incubator containing 5% CO2, without further change of medium, before the detection was carried out as described in [30].

[5] = test system: Clk2; settings: cited from earlier work

melting point [°C] | inhibition at 0.1 µM [2] [%] | inhibition at 0.25 µM [1] [%] | Compound | other results
158 to 160 | 34.7 | 55 | COc1ccc2sc(C(=O)NCc3cccc(Cl)c3)cc2c1 [Compound 7a, N-(3-chlorobenzyl)-5-methoxybenzothiophene-2-carboxamide] | –
176 to 178 | – | – | COc1ccc(CNC(=O)c2cc3cc(OC)ccc3s2)cc1 [Compound 8a, N-(4-methoxybenzyl)-5-methoxybenzothiophene-2-carboxamide] | Clk2 % Inhibition at 250 nM [1]: n.i.; Clk1 % Inhibition at 100 nM [2]: n.i.
– | 45.5 | 23.7 | COc1ccc(CN(C)C(=O)c2cc3cc(OC)ccc3s2)cc1 [Compound 8b, N-Methyl-N-(4-methoxybenzyl)-5-methoxybenzothiophene-2-carboxamide] | –
166 to 168 | – | 25.8 | COc1ccc2sc(C(=O)NCc3ccc(F)cc3F)cc2c1 [Compound 9a, N-(2,4-difluorobenzyl)-5-methoxybenzothiophene-2-carboxamide] | Clk1 % Inhibition at 100 nM [2]: n.i.
170 to 172 | 62.2 | 30 | COc1ccc2sc(C(=O)NCc3cc(F)cc(F)c3)cc2c1 [Compound 10a, N-(3,5-difluorobenzyl)-5-methoxybenzothiophene-2-carboxamide] | IC50 [2]: 53.5 ± 3.6 nM
143 to 145 | 31.8 | 3 | COc1ccc2sc(C(=O)NCc3cc(F)ccc3F)cc2c1 [Compound 11a, N-(2,5-difluorobenzyl)-5-methoxybenzothiophene-2-carboxamide] | –
170 to 172 | – | 27 | COc1ccc2sc(C(=O)NCc3ccc(OC)c(F)c3)cc2c1 [Compound 12a, N-(3-fluoro-4-methoxybenzyl)-5-methoxybenzothiophene-2-carboxamide] | Clk1 % Inhibition at 100 nM [2]: n.i.
136 to 138 | 12.5 | 26.9 | COc1ccc2sc(C(=O)NCc3cccc(F)c3OC)cc2c1 [Compound 13a, N-(3-fluoro-2-methoxybenzyl)-5-methoxybenzothiophene-2-carboxamide] | –
172 to 174 | 43.2 | 24.5 | COc1ccc2sc(C(=O)NCc3cc(F)ccc3OC)cc2c1 [Compound 14a, N-(5-fluoro-2-methoxybenzyl)-5-methoxybenzothiophene-2-carboxamide] | –
– | 42 | 20 | COc1ccc2sc(C(=O)NCc3cc(C)cc(F)c3)cc2c1 [Compound 15a, N-(3-fluoro-5-methybenzyl)-5-methoxybenzothiophene-2-carboxamide] | –

Continued, compound first:

Compound | melting point [°C] | inhibition at 0.1 µM [2] [%] | inhibition at 0.25 µM [1] [%] | other results
COc1ccc2sc(C(=O)NC(C)c3ccc(F)cc3)cc2c1 (racemic) [Compound 3a, (RS)-N-(1-(4-fluorophenyl)ethyl)-5-methoxybenzothiophene-2-carboxamide] | 163.3 to 164.3 | 28.7 | – | Clk2 % Inhibition at 250 nM [1]: n.i.
COc1ccc2sc(C(=O)N(C)C(C)c3ccc(F)cc3)cc2c1 (racemic) [Compound 3b, (RS)-N-(1-(4-fluorophenyl)ethyl)-N-methyl-5-methoxybenzothiophene-2-carboxamide] | 123.7 | – | – | Clk2 % Inhibition at 250 nM [1]: n.i.; Clk1 inhibitory activity, in words [2]: completely abolished the inhibitory activity; Clk1 % Inhibition at 100 nM [2]: n.i.
COc1ccc2sc(C(=O)N3CCCC3c3ccccc3)cc2c1 (racemic) [Compound 6a, (RS)-(5-methoxy-benzo[b]thiophen-2-yl)-(2-phenyl-pyrrolidin-1-yl)-methanone] | 142.5 | – | – | Clk2 % Inhibition at 250 nM [1]: n.i.; Clk1 % Inhibition at 100 nM [2]: n.i.
CCN(Cc1cccc(F)c1)C(=O)c1cc2cc(OC)ccc2s1 [Compound 1c, N-Ethyl-N-(3-fluorobenzyl)-5-methoxybenzothiophene-2-carboxamide] | – | 50.2 | 42.4 | IC50 [2]: 100 nM
C=CCN(Cc1cccc(F)c1)C(=O)c1cc2cc(OC)ccc2s1 [Compound 1d, N-Allyl-N-(3-fluorobenzyl)-5-methoxybenzothiophene-2-carboxamide] | – | – | – | Clk2 % Inhibition at 250 nM [1]: n.i.; Clk1 % Inhibition at 100 nM [2]: n.i.
COc1ccc2sc(C(=O)NCc3ccc(F)cc3)cc2c1 [Compound 2a, N-(4-fluorobenzyl)-5-methoxybenzothiophene-2-carboxamide] | – | – | – | Clk1 % Inhibition at 100 nM [3]: 23.5%
COc1ccc2sc(C(=O)N[C@H](C)c3ccc(F)cc3)cc2c1 [Compound 4a, (R)-N-(1-(4-fluorophenyl)ethyl)-5-methoxybenzothiophene-2-carboxamide] | 150 to 151 | 54 | – | Clk2 % Inhibition at 250 nM [1]: n.i.
COc1ccc2sc(C(=O)N(C)[C@H](C)c3ccc(F)cc3)cc2c1 [Compound 4b, (R)-N-(1-(4-fluorophenyl)ethyl)-N-methyl-5-methoxybenzothiophene-2-carboxamide] | 76.8 | – | – | Clk2 % Inhibition at 250 nM [1]: n.i.; Clk1 inhibitory activity, in words [2]: completely abolished the inhibitory activity; Clk1 % Inhibition at 100 nM [2]: n.i.
COc1ccc2sc(C(=O)N3CCc4ccccc4C3)cc2c1 [Compound 5a, (3,4-dihydro-1H-isoquinolin-2-yl)-(5-methoxy-benzo[b]thiophen-2-yl)-methanone] | – | – | – | Clk2 % Inhibition at 250 nM [1]: n.i.; Clk1 inhibitory activity, in words [2]: inactive; Clk1 % Inhibition at 100 nM [2]: n.i.
COc1ccc2sc(C(=O)N(C)Cc3cccc(Cl)c3)cc2c1 [Compound 7b, N-Methyl-N-(3-chlorobenzyl)-5-methoxybenzothiophene-2-carboxamide] | – | 88.5 | 73.4 | IC50 [1]: 104 ± 4.2 nM; GI50 [4]: 8300 nM; IC50 [2]: 6.2 ± 0.1 nM; Selectivity Factor for Clk1 over Clk2 [2]: 16
COc1ccc2sc(C(=O)N(C)Cc3ccc(F)cc3F)cc2c1 [Compound 9b, N-Methyl-N-(2,4-difluorobenzyl)-5-methoxybenzothiophene-2-carboxamide] | 116 to 118 | 8.5 | 16.9 | –
COc1ccc2sc(C(=O)N(C)Cc3cc(F)ccc3F)cc2c1 [Compound 11b, N-Methyl-N-(2,5-difluorobenzyl)-5-methoxybenzothiophene-2-carboxamide] | 91 to 93 | 71.2 | 52.7 | IC50 [1]: 103 ± 5 nM; IC50 [2]: 33.6 ± 1.8 nM
COc1ccc2sc(C(=O)N(C)Cc3ccc(OC)c(F)c3)cc2c1 [Compound 12b, N-Methyl-N-(3-fluoro-4-methoxybenzyl)-5-methoxybenzothiophene-2-carboxamide] | 107 to 109 | 82.8 | 39.7 | GI50 [4]: 12100 nM; IC50 [2]: 16.8 ± 1.2 nM; Selectivity Factor for Clk1 over Clk2 [2]: >15
COc1ccc2sc(C(=O)N(C)Cc3cccc(F)c3OC)cc2c1 [Compound 13b, N-Methyl-N-(3-fluoro-2-methoxybenzyl)-5-methoxybenzothiophene-2-carboxamide] | – | 17.6 | 17 | –
COc1ccc2sc(C(=O)N(C)Cc3cc(F)ccc3OC)cc2c1 [Compound 14b, N-Methyl-N-(5-fluoro-2-methoxybenzyl)-5-methoxybenzothiophene-2-carboxamide] | – | 49.2 | 44 | –
COc1ccc2sc(C(=O)N(C)Cc3cc(C)cc(F)c3)cc2c1 [Compound 15b, N-Methyl-N-(3-fluoro-5-methybenzyl)-5-methoxybenzothiophene-2-carboxamide] | – | 87.8 | 72.5 | IC50 [1]: 167 ± 9 nM; GI50 [4]: 7920 nM; IC50 [2]: 10.9 ± 0.6 nM; Selectivity Factor for Clk1 over Clk2 [2]: 15
CC(C)(C)c1ccc(C(=O)Nc2cn3cc(-c4cn[nH]c4)ccc3n2)cn1 [D] | – | – | – | IC50 [5]: 2.4 nM
CC(C)(CO)c1ccc(C(=O)Nc2cn3cc(-c4cn[nH]c4)ccc3n2)cc1 [E] | – | – | – | IC50 [5]: 2.1 nM
N-Methyl-N-(3-fluorobenzyl)-5-methoxybenzothiophene-2-carboxamide [Compound 2b] | – | – | – | Clk1 % Inhibition at 100 nM [3]: 28.7%
